Experiments:
[1] = tested on: 3T3L1-GLUT4myc adipocytes; assay: Glucose uptake assay in 3T3L1-GLUT4myc adipocytes; type: cell-based; settings: 2 hr
Protocol: (§1) 3T3L1-GLUT4myc fibroblast strain expressing GLUT4myc was used. The cells are constructed by inserting human c-MYC epitope (14 amino acids) into the first ectodomain. It is possible to track transport of GLUT4 onto cell membrane surface by using an antic-myc antibody.
The cells were cultured in Dulbecco's Modified Eagles Medium (DMEM) added with 10% (v/v) bovine serum, penicillin (final concentration, 100 U/ml) and streptomycin (final concentration, 0.1 mg/ml) in a humid environment under 5% CO2 and 95% air at 37° C. […]
3T3L1-GLUT4myc adipocytes were incubated in Krebs-Ringer-HEPES buffer [136 mM NaCl, 4.7 mM KCl, 1.25 mM CaCl2, 1.25 mM MgSO4 and 20 mM HEPES, pH 7.5] containing 0.2% (w/v) bovine serum albumin (BSA) and added with 10 mM glucose at 37° C. for […]. […] ABEE-labeled glucose was detected using a fluorescence detector at an excitation wavelength 305 nm and a fluorescence wavelength 360 nm. The amount of glucose uptaken into the cells after incubation for 2 hr is calculated by subtracting the extracellular glucose concentration from the initial extracellular glucose concentration (10 mM).
3T3L1-GLUT4myc adipocytes were incubated in glucose-containing (10 mM) PBS in the presence or absence of a given concentration of DCP-LA for 2 hr, and extracellular glucose concentration was measured by HPLC. […]

GLUT4 = GLUT4 mobilization monitoring (Western blotting with anti-c-myc antibody); type: cell-based; settings: 100 nM DCP-LA, 20 min; c-myc signal in cellular membrane fraction/total cell; FIG. 2
Protocol: as §1
The cells were cultured in Dulbecco's Modified Eagles Medium (DMEM) added with 10% (v/v) bovine serum, penicillin (final concentration, 100 U/ml) and streptomycin (final concentration, 0.1 mg/ml) in a humid environment under 5% CO2 and 95% air at 37° C. When the cells reached confluence (day 0), the medium was exchanged with DMEM added with 10% (v/v) fetal bovine serum (FBS), 1 μM dexamethasone, 0.5 mM 3-isobutyl-methyl-xanthine and 0.1 mg/ml insulin to allow for differentiation from fibroblast into adipocyte. The medium was exchanged with DMEM added with 10% (v/v) FBS on day 3, day 7 and day 11. On day 14, the cell differentiated into adipocyte were used for the experiment. […]
The protein concentration of each fraction was measured using BCA protein assay kit (Thermo Fisher Scientific, Waltham, Mass., USA). […] The immunoreactivity was detected using ECL kit (Invitrogen), and visualized using a chemical luminescence detection system (chemiluminescence detection system; GE Healthcare, Piscataway, N.J., USA). The signal density was measured using an image analysis software (Image Gauge software; GE Healthcare). […]

[2] = tested on: type 1 diabetes model mouse (STZ-treated C57BL/6J mouse); assay: Oral glucose tolerance test in type 1 diabetes model mouse; type: in vivo; settings: DCP-LA 0.001, 0.01, 0.1 mg/kg orally 30 min before glucose 2 g/kg, 0-90 min, FIG. 3A
Protocol: Type 1 diabetes model mouse was prepared by intraperitoneal administration of streptozotocin (STZ; 250 mg/kg) to C57BL/6J mouse (8-week-old) (Japan SLC Inc.; Shizuoka, Japan). After 4 days from the STZ administration, an oral glucose tolerance test (OGTT) was performed.
(§2) OGTT was performed using the mouse starved for 12 hr. Glucose (2 g/ml/kg body weight) was administered by gavage, and the time point thereof was taken as 0 h. DCP-LA (0, 0.001, 0.01, 0.1 mg/kg) was orally administered 30 min before administration of glucose. The blood (10 μl) was collected from the tail vein at the time points of 0, 30, 60, and 90 min, and each plasma sample which was labeled with ABEE and prepared from the obtained blood was loaded on high performance liquid chromatography (HPLC) system (LC-10ATvp; Shimadzu Co., Kyoto, Japan). The glucose concentration was calculated from a peak area/concentration analytical curve prepared using the standard glucose solution.

[3] = tested on: type 2 diabetes model mouse (C57BL/KsJ-lepr^db/lepr^db mouse); assay: Oral glucose tolerance test in type 2 diabetes model mouse; type: in vivo; settings: DCP-LA 0.001, 0.01, 0.1 mg/kg orally 30 min before glucose 2 g/kg, 0-90 min, FIG. 3B
Protocol: As type 2 diabetes model mouse, C57BL/KsJ-lepr^db/lepr^db mouse (female, 8-week-old) (CLEA Japan; Tokyo, Japan) was used.
as §2

CCCCCC1CC1CC1CC1CCCCCCCC(=O)O (centres unmarked) [DCP-LA, 8-[2-(2-pentyl-cyclopropylmethyl)-cyclopropyl]-octanoic acid]
sugar uptake promoting action in the presence of PKCε inhibitor GF109203X ([1]; 0.1 μM DCP-LA with 0.1 μM GF109203X, FIG. 1B): not inhibited | glucose uptake into the cells ([1]; 3T3L1-GLUT4myc adipocytes, 10 mM glucose PBS, given concentrations of DCP-LA, HPLC, FIG. 1A): promote sugar uptake into the adipocytes in a bell-shaped concentration-dependent manner | transport of GLUT4 onto the cellular membrane (GLUT4): not promoted significantly | blood glucose level [2]: dose-dependently lower the blood glucose level | blood glucose level [3]: dose-dependently lower the blood glucose level

— patent US9889104B2, “Agent for treating diabetes” (NISHIZAKI BIOINFORMATION RESEARCH INSTITUTE, priority 2014, dated 2018)
